Laboratory results reported in ChEMBL document CHEMBL6087416, “Discovery of novel fused-heterocycle-bearing diarypyrimidine derivatives as HIV-1 potent NNRTIs targeting tolerant region I for enhanced antiviral activity and resistance profile” (Eur J Med Chem, 2025).

Legend:
in vitro = details: human, MT4 cells
Description: Selectivity index, ratio of CC50 for human MT4 cells to EC50 for wild type HIV-1 IIIB infected in human MT4 cells

[1] = target: Human immunodeficiency virus type 1 reverse transcriptase (Human immunodeficiency virus 1, UniProt Q72547); experiment: Inhibition of wild type HIV-1 Reverse transcriptase incubated for 1 hrs by ELISA analysis
[2] = tested on: Human immunodeficiency virus 2; experiment: Antiviral activity against HIV-2 ROD infected in human MT4 cells assessed as protection against virus-induced cytopathic effect incubated for 5 days by MTT assay; assay type: functional, organism-based; details: Human immunodeficiency virus 2, ROD, MT4, 120 h
[3] = Cytotoxicity against human MT4 cells assessed as reduction in cell viability measured after 5 days by MTT assay; assay type: toxicity, cell-based; details: time 5 day
[4] = tested on: Human immunodeficiency virus 1; experiment: microbe, parasite or virus in culture; details: Human immunodeficiency virus 1, IIIB, MT4, 120 h
Description: Antiviral activity against wild type HIV-1 IIIB infected in human MT4 cells assessed as protection against virus-induced cytopathic effect incubated for 5 days by MTT assay

[5] = tested on: Human immunodeficiency virus 1; assay type: functional, organism-based; details: Human immunodeficiency virus 1, RES056, MT4, 120 h

Structure (SMILES)	selectivity ratio (in vitro)	IC50 [1] [nM]	EC50 [2] [nM]	CC50 at 120 h [3] [nM]	EC50 [4] [nM]	EC50 [5] [nM]
Cc1cc(/C=C/C#N)cc(C)c1Oc1ccnc(Nc2ccc3sccc3c2)n1	221	45	> 1710	1710	8	> 1710
Cc1cc(/C=C/C#N)cc(C)c1Oc1ccnc(Nc2ccc3nc(C#N)sc3c2)n1	1330	1130	> 81600	81600	61	> 81600
Cc1nc2cc(Nc3nccc(Oc4c(C)cc(/C=C/C#N)cc4C)n3)ccc2o1	129	53	> 1000	1000	8	> 1000
Cc1cc(/C=C/C#N)cc(C)c1Oc1ccnc(Nc2ccc3c(c2)CCN(C(=O)CS(C)(=O)=O)C3)n1	642	120	> 5950	5950	9	> 5950
Cc1cc(/C=C/C#N)cc(C)c1Oc1ccnc(Nc2ccc3c(C)cc(=O)oc3c2)n1	> 2590	78	> 47100	> 47100	18	> 47100
COP(=O)(OC)N1CCc2ccc(Nc3nccc(Oc4c(C)cc(/C=C/C#N)cc4C)n3)cc2C1	58	630	> 7010	7010	120	> 7010
Cc1cc(/C=C/C#N)cc(C)c1Oc1ccnc(Nc2ccc3c(c2)CN(S(C)(=O)=O)CC3)n1	791	78	> 4950	4950	6	> 4950
Cc1cc(/C=C/C#N)cc(C)c1Oc1ccnc(Nc2ccc3c(c2)CN(C)C3=O)n1	1290	630	> 40400	40400	31	> 40400
Cc1cc(/C=C/C#N)cc(C)c1Oc1ccnc(Nc2ccc3c(c2)OCCO3)n1	855	50	> 12100	12100	14	> 12100
Cc1cc(/C=C/C#N)cc(C)c1Oc1ccnc(Nc2ccc3c(C(F)(F)F)cc(=O)oc3c2)n1	2420	230	> 185000	185000	76	> 185000
Cc1nc2cc(Nc3nccc(Oc4c(C)cc(/C=C/C#N)cc4C)n3)ccc2s1	431	77	> 5310	5310	12	> 5310
Cc1cc(/C=C/C#N)cc(C)c1Oc1ccnc(Nc2ccc3c(c2)C(=O)NC3)n1	16000	58	> 103000	103000	6	> 103000
Cc1cc(/C=C/C#N)cc(C)c1Oc1ccnc(Nc2ccc3c(c2)CCN(S(C)(=O)=O)C3)n1	970	100	> 6630	6630	7	> 6630
Cc1cc(/C=C/C#N)cc(C)c1Oc1ccnc(Nc2ccc3c(c2)CN(CC#N)CC3)n1	159	250	> 5850	5850	37	> 5850
Cc1cc(/C=C/C#N)cc(C)c1Oc1ccnc(Nc2ccc3c(c2)CCN(S(N)(=O)=O)C3)n1	748	55	> 6240	6240	8	> 6240
COP(=O)(OC)N1CCc2cc(Nc3nccc(Oc4c(C)cc(/C=C/C#N)cc4C)n3)ccc2C1	515	170	> 4180	4180	8	> 4180
